Results from patent US10913744B2, “LRRK2 inhibitors and methods of making and using the same” (Dana-Farber Cancer Institute, Inc., priority 2015, dated 2021).
Where two headings read alike, the source gives them in different places.

Key:
LRRK2[G2019S] = LRRK2[G2019S] (Homo sapiens (Human), UniProt Q5S007, G2019S); assay: LRRK2 enzyme kinase assay, G2019S; type: biochemical
wild type LRRK2 = wild type LRRK2 (Homo sapiens (Human), UniProt Q5S007); assay: LRRK2 enzyme kinase assay, wild type; type: biochemical
Chain of wild type LRRK2 (Q5S007 1326-2527): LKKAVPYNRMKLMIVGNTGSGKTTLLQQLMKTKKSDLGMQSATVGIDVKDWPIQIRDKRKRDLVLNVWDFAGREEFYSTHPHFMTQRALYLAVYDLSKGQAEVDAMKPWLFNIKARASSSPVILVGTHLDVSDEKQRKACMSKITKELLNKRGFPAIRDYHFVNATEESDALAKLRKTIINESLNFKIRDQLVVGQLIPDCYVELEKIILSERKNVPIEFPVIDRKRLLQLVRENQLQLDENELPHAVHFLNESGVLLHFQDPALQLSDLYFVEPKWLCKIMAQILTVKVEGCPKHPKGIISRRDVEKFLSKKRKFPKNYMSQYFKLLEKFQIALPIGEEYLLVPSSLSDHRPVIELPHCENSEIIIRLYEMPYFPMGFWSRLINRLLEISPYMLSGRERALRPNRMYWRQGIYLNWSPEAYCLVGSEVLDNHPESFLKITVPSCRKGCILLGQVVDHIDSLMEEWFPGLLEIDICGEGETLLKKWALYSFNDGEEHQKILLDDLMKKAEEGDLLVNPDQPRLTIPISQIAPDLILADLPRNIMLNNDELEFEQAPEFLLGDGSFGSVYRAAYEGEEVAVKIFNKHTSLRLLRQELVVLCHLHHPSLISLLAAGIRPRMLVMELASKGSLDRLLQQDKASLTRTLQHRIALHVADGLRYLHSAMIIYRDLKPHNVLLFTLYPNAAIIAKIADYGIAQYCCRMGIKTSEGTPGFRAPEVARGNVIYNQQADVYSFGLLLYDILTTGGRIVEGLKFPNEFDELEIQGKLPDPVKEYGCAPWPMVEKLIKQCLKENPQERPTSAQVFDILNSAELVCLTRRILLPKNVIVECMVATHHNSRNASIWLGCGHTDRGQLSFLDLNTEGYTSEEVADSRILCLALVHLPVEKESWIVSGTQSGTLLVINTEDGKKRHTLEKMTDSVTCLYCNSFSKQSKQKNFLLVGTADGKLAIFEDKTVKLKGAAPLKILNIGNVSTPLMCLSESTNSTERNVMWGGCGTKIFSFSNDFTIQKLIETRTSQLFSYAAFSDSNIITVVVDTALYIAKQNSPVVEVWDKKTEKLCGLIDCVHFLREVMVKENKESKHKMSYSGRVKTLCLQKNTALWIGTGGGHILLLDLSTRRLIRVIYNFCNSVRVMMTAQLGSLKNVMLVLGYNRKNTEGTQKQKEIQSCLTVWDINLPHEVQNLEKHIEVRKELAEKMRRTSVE

LRRK2 [1] = target: LRRK2 (Mus musculus (Mouse), UniProt Q5S006); assay: Pharmacodynamic study, LRRK2 Ser910/Ser935 phosphorylation in mouse kidney, spleen and brain; type: in vivo
Chain of LRRK2 (Mus musculus (Mouse), UniProt Q5S006) (Q5S006 whole entry, looked up): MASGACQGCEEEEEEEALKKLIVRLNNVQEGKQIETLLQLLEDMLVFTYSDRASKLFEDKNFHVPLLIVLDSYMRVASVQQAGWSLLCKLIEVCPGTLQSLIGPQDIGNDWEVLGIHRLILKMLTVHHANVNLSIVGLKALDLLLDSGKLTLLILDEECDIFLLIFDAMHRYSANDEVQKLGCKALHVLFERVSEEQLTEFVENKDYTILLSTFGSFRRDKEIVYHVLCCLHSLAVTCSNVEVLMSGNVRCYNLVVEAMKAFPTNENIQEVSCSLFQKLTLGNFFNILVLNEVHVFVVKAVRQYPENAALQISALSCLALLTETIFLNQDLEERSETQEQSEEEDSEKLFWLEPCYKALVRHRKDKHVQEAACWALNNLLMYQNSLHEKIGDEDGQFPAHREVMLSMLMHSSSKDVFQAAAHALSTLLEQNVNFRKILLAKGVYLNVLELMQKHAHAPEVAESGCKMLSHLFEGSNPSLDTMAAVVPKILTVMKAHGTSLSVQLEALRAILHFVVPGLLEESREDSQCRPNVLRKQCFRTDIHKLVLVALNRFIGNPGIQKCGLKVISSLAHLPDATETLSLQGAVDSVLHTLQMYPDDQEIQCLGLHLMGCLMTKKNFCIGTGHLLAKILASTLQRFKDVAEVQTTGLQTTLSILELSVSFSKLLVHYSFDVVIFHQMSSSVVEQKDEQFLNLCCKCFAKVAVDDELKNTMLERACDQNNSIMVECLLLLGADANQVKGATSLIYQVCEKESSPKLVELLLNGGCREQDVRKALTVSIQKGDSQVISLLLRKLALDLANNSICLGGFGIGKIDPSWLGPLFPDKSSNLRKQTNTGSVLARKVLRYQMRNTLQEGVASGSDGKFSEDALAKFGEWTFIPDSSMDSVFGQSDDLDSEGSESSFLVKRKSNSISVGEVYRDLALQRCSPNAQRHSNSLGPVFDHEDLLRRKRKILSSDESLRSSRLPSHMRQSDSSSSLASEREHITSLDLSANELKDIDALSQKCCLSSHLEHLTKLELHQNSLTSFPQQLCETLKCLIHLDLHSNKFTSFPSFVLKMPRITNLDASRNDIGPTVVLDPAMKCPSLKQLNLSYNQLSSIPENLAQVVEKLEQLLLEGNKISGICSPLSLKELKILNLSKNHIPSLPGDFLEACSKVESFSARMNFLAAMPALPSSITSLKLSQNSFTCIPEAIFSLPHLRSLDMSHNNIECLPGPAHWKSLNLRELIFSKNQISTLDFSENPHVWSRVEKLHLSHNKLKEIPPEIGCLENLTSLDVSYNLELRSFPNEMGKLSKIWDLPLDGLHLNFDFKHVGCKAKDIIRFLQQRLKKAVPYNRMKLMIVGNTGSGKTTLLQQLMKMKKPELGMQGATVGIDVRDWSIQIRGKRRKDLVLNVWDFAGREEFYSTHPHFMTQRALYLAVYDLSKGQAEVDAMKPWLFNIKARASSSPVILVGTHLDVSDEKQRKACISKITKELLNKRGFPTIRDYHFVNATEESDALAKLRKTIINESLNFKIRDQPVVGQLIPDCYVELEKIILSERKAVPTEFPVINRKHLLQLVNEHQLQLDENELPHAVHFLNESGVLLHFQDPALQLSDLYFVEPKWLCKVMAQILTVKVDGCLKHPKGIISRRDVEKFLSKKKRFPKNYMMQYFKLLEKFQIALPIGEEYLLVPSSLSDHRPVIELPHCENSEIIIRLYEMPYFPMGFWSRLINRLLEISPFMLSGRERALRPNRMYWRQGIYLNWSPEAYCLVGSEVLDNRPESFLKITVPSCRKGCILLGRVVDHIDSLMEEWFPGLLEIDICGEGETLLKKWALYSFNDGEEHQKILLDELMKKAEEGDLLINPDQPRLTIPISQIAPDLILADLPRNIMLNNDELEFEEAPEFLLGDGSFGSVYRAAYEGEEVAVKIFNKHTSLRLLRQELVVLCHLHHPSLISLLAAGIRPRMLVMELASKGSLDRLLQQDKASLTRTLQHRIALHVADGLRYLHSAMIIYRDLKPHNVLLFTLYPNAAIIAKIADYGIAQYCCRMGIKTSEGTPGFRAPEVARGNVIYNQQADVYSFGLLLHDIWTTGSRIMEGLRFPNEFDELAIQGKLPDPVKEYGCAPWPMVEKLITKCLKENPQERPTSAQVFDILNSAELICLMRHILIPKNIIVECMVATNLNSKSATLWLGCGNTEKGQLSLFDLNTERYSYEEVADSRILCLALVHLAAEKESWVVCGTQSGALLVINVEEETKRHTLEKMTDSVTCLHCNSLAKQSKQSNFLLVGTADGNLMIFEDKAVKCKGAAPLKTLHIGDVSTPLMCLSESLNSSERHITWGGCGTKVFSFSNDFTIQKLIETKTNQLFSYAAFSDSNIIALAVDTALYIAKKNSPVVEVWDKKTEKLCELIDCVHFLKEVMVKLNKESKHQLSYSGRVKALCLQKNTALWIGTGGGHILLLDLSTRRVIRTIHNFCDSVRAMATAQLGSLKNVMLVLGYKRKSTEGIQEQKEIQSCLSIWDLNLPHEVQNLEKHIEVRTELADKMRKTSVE

LRRK2 [2] = settings: G2019S LRRK2 transgenic mice, oral dosing; cited from earlier work
[3] = target: GST-LRRK2[G2019S](1,326-2,527) (Homo sapiens (Human), UniProt Q5S007, G2019S); assay: Nictide peptide kinase assay, 100 μM ATP; type: biochemical; settings: 20 μM Nictide
Chain of GST-LRRK2[G2019S](1,326-2,527) (Q5S007 1326-2527 G2019S): as the sequence (Q5S007 1326-2527) above, with G694S counted along it
Experimental: (§1) Assay procedures are further discussed in Section 4 herein.
(§2) Samples were washed extensively and the incorporation of [γ-32P]ATP into Nictide was quantified by Cerenkov counting. IC50 values were calculated with GraphPad Prism using non-linear regression analysis.

[4] = target: GST-LRRK2[G2019S + A2016T](1,326-2,517) (Homo sapiens (Human), UniProt Q5S007, A2016T/G2019S); assay: Nictide peptide kinase assay, 100 μM ATP; type: biochemical; settings: 20 μM Nictide
Chain of GST-LRRK2[G2019S + A2016T](1,326-2,517) (Q5S007 1326-2527 A2016T/G2019S): as the sequence (Q5S007 1326-2527) above, with A691T, G694S counted along it
Experimental: as §1, §2

[5] = target: GST-LRRK2[A2016T](1326-2517) (Homo sapiens (Human), UniProt Q5S007, A2016T); assay: Nictide peptide kinase assay, 100 μM ATP; type: biochemical; settings: 20 μM Nictide
Chain of GST-LRRK2[A2016T](1326-2517) (Q5S007 1326-2527 A2016T): as the sequence (Q5S007 1326-2527) above, with A691T counted along it
Experimental: as §1, §2

[6] = target: GST-LRRK2(1,326-2,517) wild-type (Homo sapiens (Human), UniProt Q5S007); assay: Nictide peptide kinase assay, 100 μM ATP; type: biochemical; settings: 20 μM Nictide
Chain of GST-LRRK2(1,326-2,517) wild-type (Q5S007 1326-2527): as the sequence (Q5S007 1326-2527) above
Experimental: as §1, §2

[7] = Table 1, ATP at Km 36 μm, read-out: Enzyme IC50 wt
[8] = Table 3, read-out: Enzyme IC50 WT

Chain of LRRK2[G2019S] (Q5S007 1326-2527 G2019S): as the sequence (Q5S007 1326-2527) above, with G694S counted along it

Compound | IC50 (LRRK2[G2019S]; Table 1, ATP at Km 112 μm) | IC50 (wild type LRRK2; [7]) | other results
COc1cc(C(=O)N2CCOCC2)ccc1Nc1nc(OC)c2cc[nH]c2n1 [Compound 9, (3-methoxy-4-((4-methoxy-7H-pyrrolo[2,3-d]pyrimidin-2-yl)amino)phenyl) (morpholino)methanone] | 95.7 nM | 13.6 nM | –
COc1cc(C(=O)N2CCOCC2)ccc1Nc1ncc2cc[nH]c2n1 [Compound 10] | 40 nM | 34 nM | –
COCCNc1nc(Nc2ccc(C(=O)N3CCOCC3)cc2OC)nc2[nH]ccc12 [Compound 11] | 3 nM | 4 nM | –
CCNc1nc(Nc2ccc(C(=O)N3CCOCC3)cc2OC)nc2[nH]ccc12 [Compound 12] | 2.5 nM | 1.1 nM | –
CCCNc1nc(Nc2ccc(C(=O)N3CCOCC3)cc2OC)nc2[nH]ccc12 [Compound 13] | 2.4 nM | 1.6 nM | –
COc1cc(C(=O)N2CCOCC2)ccc1Nc1nc(NCC2CCCO2)c2cc[nH]c2n1 (stereo not shown) [Compound 14] | 4.4 nM | 3.3 nM | –
COc1cc(C(=O)N2CCOCC2)ccc1Nc1nc(NC2CC2)c2cc[nH]c2n1 [Compound 15] | 4.7 nM | 2.4 nM | –
CNc1nc(Nc2cc(F)c(C(=O)N3CCOCC3)cc2OC)nc2[nH]ccc12 [Compound 16] | 7.1 nM | 2.1 nM | –
COc1cc(C(=O)N2CCOCC2)ccc1Nc1ncc2c(Cl)c[nH]c2n1 [Compound 17] | 108 nM | 159 nM | –
CCNc1nc(Nc2ccc(C(=O)N3CCOCC3)cc2OC)nc2[nH]cc(Cl)c12 [Compound 19] | 4.4 nM | 1.4 nM | –
CCCNc1nc(Nc2ccc(C(=O)N3CCOCC3)cc2OC)nc2[nH]cc(Cl)c12 [Compound 20] | 12.4 nM | 7.7 nM | –
CNc1nc(Nc2ccc(C(=O)N3CCOCC3)cc2OC)nc2[nH]cnc12 [Compound 21, (3-methoxy-4-((6-(methylamino)-9H-purin-2-yl)amino)phenyl)(morpholino) methanone] | – | – | IC50 (LRRK2[G2019S]; Table 3): 44 nM; IC50 (wild type LRRK2; [8]): 35 nM
COc1cc(C(=O)N2CCOCC2)ccc1Nc1nc(OC)c2nc[nH]c2n1 [Compound 22, (3-methoxy-4-((6-methoxy-9H-purin-2-yl)amino)phenyl)(morpholino)methanone] | – | – | IC50 (LRRK2[G2019S]; Table 3): 3 nM; IC50 (wild type LRRK2; [8]): 3 nM
COc1cc(C(=O)N2CCOCC2)ccc1Nc1nc(OC)c2cn[nH]c2n1 [Compound 24, (3-methoxy-4-((4-methoxy-1H-pyrazolo[3,4-d]pyrimidin-6-yl)amino)phenyl) (morpholino)methanone] | – | – | IC50 (LRRK2[G2019S]; Table 3): 18.5 nM; IC50 (wild type LRRK2; [8]): 19.4 nM
CCNc1nc(Nc2cc(F)c(C(=O)N3CCOCC3)cc2OC)ncc1C(F)(F)F [GNE7915, reference compound] | – | – | dephosphorylation of Ser935 of LRRK2 in kidney, spleen and brain (LRRK2 [1]; 100 mg/kg, intraperitoneal): near complete dephosphorylation of Ser935 of LRRK2; dose at which complete inhibition in brain was observed (LRRK2 [1]; doses 10, 30, 50, 100 mg/kg): 100 mg/kg; reduction of LRRK2 activity in brain (Ser935 phosphorylation) (LRRK2 [2]): significantly reduce LRRK2 activity in the brain
O=C(Nc1cccnc1)c1cc(-c2ccnc(F)c2)ccc1OCc1ccccc1 [GSK2578215A] | – | – | IC50 [3]: 8.9 nM; IC50 [4]: 61.3 nM; IC50 [5]: 81.1 nM; IC50 [6]: 10.9 nM
CNc1nc(Nc2ccc(C(=O)N3CCOCC3)cc2OC)ncc1Cl [HG-10-102-01] | – | – | reduction of LRRK2 activity in brain (Ser935 phosphorylation) (LRRK2 [2]): significantly reduce LRRK2 activity in the brain
COc1cc(C(=O)N2CCC(N3CCN(C)CC3)CC2)ccc1Nc1ncc2c(n1)N(C)c1ccccc1C(=O)N2C [LRRK2-IN-1] | – | – | IC50 [3]: 6 nM; IC50 [4]: 3080 nM; IC50 [5]: 2450 nM; IC50 [6]: 13 nM
N#Cc1cccc(-c2c[nH]c3ncnc(N4CCOCC4)c23)c1 [PF-06447474] | – | – | reduction of LRRK2 activity in brain (Ser935 phosphorylation) (LRRK2 [2]): capable of reducing LRRK2 activity in the brain
(3-methoxy-4-((4-(methylamino)-1H-pyrazolo[3,4-d]pyrimidin-6-yl)amino)phenyl)(morpholino)methanone [Compound 23] | – | – | IC50 (LRRK2[G2019S]; Table 3): 4 nM; IC50 (wild type LRRK2; [8]): 11.5 nM
